The term MIC denotes the smallest concentration in the dilution series that meets the test's criterion for growth inhibition. As usually defined, the MIC50 is an inhibitory concentration at the 50% level, which refers to growth in some studies and to a panel of isolates in others. A higher MIC50 goes with weaker potency. The IC30 is the concentration needed for an effect of 30%. A low value points to greater potency. Broadly, the MIC80 is an inhibitory concentration at the 80% level, which refers to growth in some studies and to a panel of isolates in others.

Values after ≈ are worked out from the molar mass of the structure shown. Where only a bound is given, the exact number is not on record here.

Assay [1] relates to Candida. The assay is described as follows: Antifungal activity against Candida. It is filed as functional.
The test system of assay [2] is Candida. The assay is described as follows: Antifungal activity against Candida sp. It is filed as functional.
The test system of assay [3] is Candida albicans. Description: Antifungal activity against fluconazole-resistant Candida albicans clinical isolate 4380 planktonic cells after 48 hrs by broth microdilution assay. It is filed as functional. The following applies: isolate 4380, 48 h. A general note: Dilution methods test growth across graded concentrations, often in twofold steps.
For assay [4], the system named is Candida albicans. The assay is described as follows: Antifungal activity against fluconazole-resistant Candida albicans clinical isolate 4617 planktonic cells after 48 hrs by broth microdilution assay. As to conditions: isolate 4617, 48 h. It is filed as functional.
Assay [5] concerns Candida albicans. The assay is described as follows: Antifungal activity against fluconazole-resistant Candida albicans SC5314 planktonic cells after 48 hrs by broth microdilution assay. It is filed as functional. The following applies: SC5314, 48 h.
In assay [6] the test system is Candida albicans. Description: Antifungal activity against fluconazole-resistant Candida albicans clinical isolate 2440 planktonic cells after 48 hrs by broth microdilution assay. It is filed as functional. As to conditions: isolate 2440, 48 h.
Assay [7] has as its system Candida albicans. Description: Antifungal activity against fluconazole-resistant Candida albicans clinical isolate 1691 planktonic cells after 48 hrs by broth microdilution assay. As to conditions: isolate 1691, 48 h. Type of assay: functional.
For assay [8], the system named is Candida albicans. Description: Antibiofilm activity against Candida albicans SC5314 assessed as inhibition of biofilm formation at 2 to 4 ug/ml after 24 hrs by XTT reduction assay. Type of assay: functional.
In assay [9] the test system is Candida albicans. The assay is described as follows: Antifungal activity against fluconazole-resistant Candida albicans clinical isolate 6191 planktonic cells after 48 hrs by broth microdilution assay. It is filed as functional. As to conditions: isolate 6191, 48 h.
The test system of assay [10] is Candida albicans. The assay is described as follows: Antifungal activity against fluconazole-resistant Candida albicans clinical isolate 412 planktonic cells after 48 hrs by broth microdilution assay. Type of assay: functional. The following applies: isolate 412, 48 h.
In assay [11] the test system is Candida albicans. The assay is described as follows: Antifungal activity against fluconazole-resistant Candida albicans clinical isolate 3034 planktonic cells after 48 hrs by broth microdilution assay. It is filed as functional. As to conditions: isolate 3034, 48 h.
For assay [12], the system named is Candida albicans. The assay is described as follows: Antifungal activity against fluconazole-resistant Candida albicans clinical isolate 6482 planktonic cells after 48 hrs by broth microdilution assay. Type of assay: functional. As to conditions: isolate 6482, 48 h.
In assay [13] the test system is Candida albicans. The assay is described as follows: Antibiofilm activity against Candida albicans SC5314 assessed as inhibition of mature biofilm formation at 8 to 32 ug/ml after 24 hrs by XTT reduction assay. It is filed as functional.
Assay [14] has as its system Candida albicans. The assay is described as follows: Antifungal activity against fluconazole-resistant Candida albicans clinical isolate 5106 planktonic cells after 48 hrs by broth microdilution assay. It is filed as functional. The following applies: isolate 5106, 48 h.
Assay [15] concerns Candida albicans. Description: Antifungal activity against fluconazole-resistant Candida albicans clinical isolate 2307 planktonic cells after 48 hrs by broth microdilution assay. Type of assay: functional. As to conditions: isolate 2307, 48 h.
For assay [16], the system named is Candida albicans. The assay is described as follows: Antifungal activity against fluconazole-resistant Candida albicans clinical isolate 3731 planktonic cells after 48 hrs by broth microdilution assay. As to conditions: isolate 3731, 48 h. It is filed as functional.
For assay [17], the system named is Candida albicans. Description: Antifungal activity against fluconazole-resistant Candida albicans clinical isolate 4639 planktonic cells after 48 hrs by broth microdilution assay. Type of assay: functional. As to conditions: isolate 4639, 48 h.
For assay [18], the system named is Candida albicans. Description: Antifungal activity against Candida albicans after 24 hrs. It is filed as functional.
In another assay the test system is Saccharomyces cerevisiae. Description: Inhibition of Saccharomyces cerevisiae AHAS.
For assay [19], the system named is Aspergillus fumigatus. Description: Antifungal activity against Aspergillus fumigatus after 24 hrs. Type of assay: functional.
For assay [20], the system named is Cryptococcus neoformans. The assay is described as follows: Antifungal activity against Cryptococcus neoformans after 24 hrs. It is filed as functional.
For assay [21], the system named is Aspergillus fumigatus. Description: Antifungal activity against Aspergillus fumigatus ATCC 46645 after 24 hrs. It is filed as functional. As to conditions: ATCC 46645, 24 h.
Assay [22] relates to Cryptococcus neoformans. The assay is described as follows: Antifungal activity against Cryptococcus neoformans H99 after 48 hrs. It is filed as functional. The following applies: var grubii H99 .
Assay [23] concerns Candida albicans. The assay is described as follows: Antifungal activity against Candida albicans ATCC 10231 after 24 hrs by CLSI protocol based method. Type of assay: functional. As to conditions: ATCC 10231, 24 h.
For assay [24], the system named is Candida albicans. The assay is described as follows: Antifungal activity against fluconazole-susceptable Candida albicans isolate 11 after 24 hrs by microdilution method. Type of assay: functional. The following applies: isolate 11, 24 h.
Assay [25] relates to Candida albicans. Description: Antifungal activity against fluconazole-susceptable Candida albicans isolate 5 after 24 hrs by microdilution method. It is filed as functional. As to conditions: isolate 5, 24 h.
The test system of assay [26] is Candida albicans. The assay is described as follows: Antifungal activity against fluconazole-susceptable Candida albicans isolate 9 after 24 hrs by microdilution method. Type of assay: functional. As to conditions: isolate 9, 24 h.
For assay [27], the system named is Candida albicans. The assay is described as follows: Antifungal activity against fluconazole-susceptable Candida albicans isolate 14 after 24 hrs by microdilution method. As to conditions: isolate 14, 24 h. Type of assay: functional.
Assay [28] has as its system Candida albicans. The assay is described as follows: Antifungal activity against fluconazole-susceptable Candida albicans isolate 8 after 24 hrs by microdilution method. Type of assay: functional. The following applies: isolate 8, 24 h.
The subject of assay [29] is Candida albicans. The assay is described as follows: Antifungal activity against fluconazole-susceptable Candida albicans isolate 2 after 24 hrs by microdilution method. It is filed as functional. As to conditions: isolate 2, 24 h.
In assay [30] the test system is Candida albicans. The assay is described as follows: Antifungal activity against fluconazole-susceptable Candida albicans isolate 1 after 24 hrs by microdilution method. Type of assay: functional. The following applies: isolate 1, 24 h.
For assay [31], the system named is Candida albicans. Description: Antifungal activity against fluconazole-susceptable Candida albicans isolate 13 after 24 hrs by microdilution method. The following applies: isolate 13, 24 h. Type of assay: functional.
Assay [32] deals with Candida albicans. The assay is described as follows: Antifungal activity against fluconazole-susceptable Candida albicans isolate 3 after 24 hrs by microdilution method. It is filed as functional. The following applies: isolate 3, 24 h.
Assay [33] deals with Candida albicans. The assay is described as follows: Antifungal activity against fluconazole-susceptable Candida albicans isolate 12 after 24 hrs by microdilution method. It is filed as functional. The following applies: isolate 12, 24 h.
Assay [34] concerns Candida albicans. Description: Antifungal activity against fluconazole-susceptable Candida albicans isolate 15 after 24 hrs by microdilution method. It is filed as functional. As to conditions: isolate 15, 24 h.
Assay [35] concerns Candida albicans. Description: Antifungal activity against fluconazole-susceptable Candida albicans isolate 4 after 24 hrs by microdilution method. As to conditions: isolate 4, 24 h. Type of assay: functional.
In assay [36] the test system is Candida albicans. The assay is described as follows: Antifungal activity against fluconazole-resistant Candida albicans isolate 16 after 24 hrs by microdilution method. The following applies: isolate 16, 24 h. It is filed as functional.
Assay [37] deals with Candida albicans. Description: Antifungal activity against fluconazole-susceptable Candida albicans isolate 10 after 24 hrs by microdilution method. It is filed as functional. As to conditions: isolate 10, 24 h.
Assay [38] relates to Candida albicans. Description: Antifungal activity against fluconazole-susceptable Candida albicans isolate 6 after 24 hrs by microdilution method. It is filed as functional. The following applies: isolate 6, 24 h.
Assay [39] concerns Candida albicans. Description: Antifungal activity against fluconazole-susceptable Candida albicans isolate 7 after 24 hrs by microdilution method. It is filed as functional. The following applies: isolate 7, 24 h.
In assay [40] the test system is Candida albicans. The assay is described as follows: Antifungal activity against fluconazole-resistant Candida albicans isolate 17 after 24 hrs by microdilution method. As to conditions: isolate 17, 24 h. It is filed as functional.

As for `CN(C)c1ccc(/C=C/c2cc(C(C)(C)C)[o+]c(C(C)(C)C)c2)cc1.[O-][Cl+3]([O-])([O-])[O-]`, the MIC against Candida [1] lay within 0.2 to 6.25 µg/mL; with Candida [2], 0.5 to 1 µg/mL.
Take `CCCCCCCCCCCCCCCCOP(=O)([O-])OCC[N+](C)(C)C` [MILTEFOSINE]: the MIC against Candida albicans [3], against Candida albicans [4], in the assay with Candida albicans [5], in the assay with Candida albicans [6], against Candida albicans [7] and in the assay with Candida albicans [9] was 0.5 to 2 µg/mL (≈ 1.23 to 4.91 µM) throughout. Moreover, the MIC in the assay with Candida albicans [10], with Candida albicans [11], in the assay on Candida albicans [12], against Candida albicans [14], in the assay on Candida albicans [15] and in the assay with Candida albicans [16] was 0.5 to 2 µg/mL (≈ 1.23 to 4.91 µM) each time. This compound yielded an MIC in the assay on Candida albicans [17] of 0.5 to 2 µg/mL (≈ 1.23 to 4.91 µM). The “inhibition (INH)” value with Candida albicans [8] is 90%; with Candida albicans [13], above 90%.
Turning to `CCc1cccc(C)c1NS(=O)(=O)c1nc2nc(C)cc(C3CC3)n2n1`, the MIC50 in the assay on Candida albicans [18] came out at 1 µg/mL (≈ 2.69 µM); against Aspergillus fumigatus [19] it was 4 µg/mL (≈ 10.8 µM); against Cryptococcus neoformans [20], 4 µg/mL (≈ 10.8 µM). The IC30 in the assay with Saccharomyces cerevisiae is 4.2 µM.
In the case of `CC1=C(O)C(=O)C=C2C1=CC=C1[C@@]2(C)CC[C@@]2(C)[C@@H]3C[C@](C)(C(=O)O)CC[C@]3(C)CC[C@]12C` [CELASTROL], inhibition of growth in the assay with Aspergillus fumigatus [21] (MIC) required 2 µM (≈ 0.901 µg/mL).
Take `Cc1nn(-c2ccccc2)c2nc(C(F)(F)F)cc(O)c12`: the MIC80 against Cryptococcus neoformans [22] was in the range of 32 to 64 µg/mL (≈ 109 to 218 µM).
In turn, `O=C(O)C[C@]1(C(=O)O)OC1C(=O)O` (stereo partly specified) yielded an MIC in the assay with Candida albicans [23] above 512 µg/mL.
Take `COc1ccc2cc1Oc1ccc(cc1)C[C@@H]1c3cc(c(OC)cc3CCN1C)Oc1c(OC)c(OC)cc3c1[C@H](C2)N(C)CC3` [ISOTETRANDRINE]: the MIC80 in the assay with Candida albicans [24], in the assay with Candida albicans [25], against Candida albicans [26], against Candida albicans [27], against Candida albicans [28] and with Candida albicans [29] was 64 µg/mL (≈ 103 µM) each time. For the same compound, the MIC80 against Candida albicans [30], with Candida albicans [31], against Candida albicans [32], with Candida albicans [33], with Candida albicans [34] and with Candida albicans [35] was 64 µg/mL (≈ 103 µM) throughout. Besides, the MIC80 in the assay on Candida albicans [36], with Candida albicans [37], in the assay on Candida albicans [38], in the assay with Candida albicans [39] and against Candida albicans [40] was 64 µg/mL (≈ 103 µM) throughout.

These data come from ChEMBL document CHEMBL4190370, “Emerging New Targets for the Treatment of Resistant Fungal Infections” (J Med Chem, 2018).
